“Also recorded” adds a separate entry of the source.
Legend:
apoptotic cells [1] = details: cited from earlier work
POPC:POPS vesicles = experiment: Vesicle fluorescence titration of PSS-380, POPC:POPS vesicles; assay type: binding; details: HEPES 10 mM
Experimental: (§1) Unilamellar vesicles were prepared by initial hydration of a dried lipid film followed by repeated extrusion through polycarbonate membranes having a pore size of 100 nm. Aliquots of vesicle suspension were added to a solution of PSS-380 (1 μM, 3 mL) in HEPES buffer (10 mM) at pH 7.2. The fluorescence emission intensity at 440 nm (ex 380 nm) was measured 15 seconds after the addition of each aliquot.

[2] = system: POPC:POPG (50:50) vesicles; experiment: Vesicle fluorescence titration of PSS-380, POPC:POPG vesicles; assay type: binding; details: 50:50, PSS-380 1 μM, HEPES 10 mM, pH 7.2, ex 380, em 440 nm
Experimental: as §1

[3] = system: POPC:POPA (50:50) vesicles; experiment: Vesicle fluorescence titration of PSS-380, POPC:POPA vesicles; assay type: binding; details: 50:50, PSS-380 1 μM, HEPES 10 mM, pH 7.2, ex 380, em 440 nm
Experimental: as §1

100% POPC vesicles = experiment: Vesicle fluorescence titration of PSS-380, zwitterionic POPC vesicles; assay type: binding
Experimental: as §1

[4] = system: vesicle membranes containing anionic phospholipids (phosphatidylserine, phosphatidylglycerol, phosphatidic acid); experiment: Fluorescence response to vesicle membranes containing anionic phospholipids; assay type: binding; details: more than a few percent of phosphatidylserine, phosphatidylglycerol or phosphatidic acid
Experimental: as §1

[5] = Fluorescence titration with monodispersed phospholipids; assay type: binding; details: DHPC:DHPS (1:1) titration, micromolar concentrations
Description: (§2) Although the fluorescence emission of PSS-380 increases in the presence of vesicles containing PS, it is unchanged if the PS is monodispersed. […] Titration of PSS-380 with increasing amounts of a DHPC:DHPS (1:1) mixture results in no change in fluorescence intensity. Further evidence that PSS-380 has a weak affinity for DHPS and DHPC in water was gained from ^31P NMR titration experiments. The ^31P signals for phospholipid head groups hardly move upon addition of PSS-380. This is in line with previous studies with PSS-380 showing that it has low affinity for neutral or mono-anionic molecules in water, Ojida, A., Mito-Oka, Y., Inoue, M. A. & Hamachi, I. (2002) J. Am. Chem. Soc., 124, 6256–6258, the entire contents and disclosure of which is hereby incorporated by reference.

[6] = 31P NMR titration with DHPS and DHPC in water; assay type: binding
Description: as §2

erythrocytes = experiment: Erythrocyte studies, normal versus scrambled erythrocytes; assay type: cell-based, human; details: PSS-380 1 μM, 5 mM TES, 150 mM NaCl, pH 7.4, 4×10^9 erythrocytes
Experimental: Aliquots (10 μL) containing 4.0×10^9 of normal or “scrambled” erythrocytes were added to a solution of PSS-380 (1 μM, 3 mL) in 5 mM TES, 150 mM NaCl, pH 7.4. The erythrocytes were prepared in the following way. Fresh human blood was collected in ice-cold phosphate-buffered-saline (PBS) containing 10 U/mL of heparin. The samples were centrifuged and the supernatant and the top 10% of the erythrocytes were removed. The wash was repeated two more times. An equal volume of PBS was added to the remaining pellet. The desired number of cells was removed, centrifuged and the supernatant discarded. Four volumes of lysis buffer (0.1×PBS containing 0.1 mM EGTA, 1 mM MgCl2, and 1% BSA, plus 1 mM CaCl2 for “scrambled” erythrocytes only) were added to the pellet. The suspensions were vortexed and the lysed cells were placed on ice. After 2 minutes, the cells were resealed by adding 0.4 volumes (relative to the size of the original pellet) of 10×PBS. The tubes were gently inverted and warmed to 37° C. After 30 minutes, 100 volumes of PBS were added, then the cells were centrifuged into pellets, washed three times, and resuspended in TES buffer for use.

Jurkat cells [7] = experiment: Single-well bulk fluorescence assay for apoptosis; assay type: cell-based; details: apoptosis induced by camptothecin
Experimental: The ability of PSS-380 to detect cell apoptosis was also examined in the present invention. This was approached in three ways. First, it was assessed whether PSS-380 could be used in a single-well, bulk fluorescence assay for apoptosis. […] Thus, cell apoptosis may be detected qualitatively using PSS-380 in a simple, single-well, bulk fluorecence assay.

apoptotic cells [8] = experiment: Cell staining and fluorescence microscopy of apoptotic cells; assay type: cell-based
Experimental: Jurkat E6-1 cells were grown in RPMI 1640 growth media supplemented with 10% fetal bovine serum. MCF-7 cells were grown in DMEM growth media with 10% fetal bovine serum. […] Suspended cells (Jurkat) were grown to a density of 1×10^6 cells/mL. Before staining with annexin V-FITC, the growth media was changed to a binding buffer containing 5 mM TES/145 mM NaCl, 2.5 mM CaCl2, at pH 7.4. The cells were incubated with annexin V-FITC (10 μL of Pharmingen stock solution per mL cell suspension), 7AAD (5 μL of 50 μg/mL stock solution per mL cell suspension), and PSS-380 (20 μL of 1 mM stock solution per mL cell suspension) for 15 minutes at 37° C. The incubation mixture was aspirated and changed to a buffer containing 5 mM TES, 145 mM NaCl, pH 7.4. At this point, the Jurkat cell suspensions were added to 16-well chamber-slides. Cells were observed directly on an Axiovert S100 TV microscope (Carl Zeiss) equipped with filter sets DAPI/Hoechst/[…]/Bodipy/Fluo3/DiO, Cy3 (Chroma). Pictures were taken using a black and white digital camera and colored afterwards using Photoshop 6.0 software package (Adobe). Fluorescence microscopy was also used to evaluate if PSS-380 could identify sub-populations of live, apoptotic, and dead cells. Cell apoptosis was induced by treatment with camptothecin, or the calcium ionophore A23187. The drug-treated cells and untreated control cells were subsequently stained with a mixture of annexin V-FITC (green), PSS-380 (blue) and 7AAD (red). FIGS. 5, 6 and 7 display typical microscopic images produced using this method. Live cells are not stained by any of the dyes; whereas, staining by 7AAD identifies dead cells with permeable membranes. Cells that are only stained by annexin V-FITC or PSS-380 are defined as apoptotic. The microscopic images show a slight statistical variation in cell staining, due in part to the fact that PSS-380 and annexin V-FITC are competing for the same cell surface binding sites. If the staining experiments are repeated using either annexin V or PSS-380 alone, the emission from positive cells is more homogeneous and with similar intensity.

Jurkat cells [9] = experiment: Toxicity of PSS-380, flow cytometry with PI; assay type: cell-based; details: 100 μM, one hour
Experimental: Tests were performed to establish the toxicity of PSS-380.

[10] = in water; cited from earlier work
[11] = system: membranes that are rich in PS; details: cited from earlier work

Molecule: CCCCN(CCCC)c1ccc(/C=C/c2cc[n+](CCC[N+](CC)(CC)CC)cc2)cc1.[Br-].[Br-] [FM1-43]
- signal difference between normal cells and apoptotic cells (apoptotic cells [1]): 6–10 fold

Molecule: CCCCN1C(=O)C(=C/C=C/C=C2\Oc3ccccc3N2CCCS(=O)(=O)[O-])C(=O)N(CCCC)C1=S.[Na+] [MC540]
- signal difference between normal cells and apoptotic cells (apoptotic cells [1]): about five fold

Molecule: O=[N+]([O-])[O-].O=[N+]([O-])[O-].O=[N+]([O-])[O-].O=[N+]([O-])[O-].[Zn+2].[Zn+2].c1ccc(CN(Cc2ccccn2)Cc2c3ccccc3c(CN(Cc3ccccn3)Cc3ccccn3)c3ccccc23)nc1 [PSS-380]
- change in fluorescence intensity, POPC:POPS 50:50 vesicles (POPC:POPS vesicles; 50:50, PSS-380 1 μM, pH 7.2, ex 380, em 440 nm): ten-fold increase
- change in fluorescence emission, vesicles containing 5 mol % of POPS (POPC:POPS vesicles; POPC:POPS 95:5, PSS-380 1 μM, pH 7.2): four-fold rise
- change in fluorescence intensity, POPC:POPG vesicles [2]: eleven-fold increase
- change in fluorescence intensity, POPC:POPA vesicles [3]: six-fold increase
- affinity with membranes composed only of zwitterionic phospholipids (100% POPC vesicles): no apparent affinity
- change in fluorescence after addition of zwitterionic POPC vesicles (100% POPC vesicles; PSS-380 1 μM, HEPES 10 mM, pH 7.2, ex 380, em 440 nm): not affected; also recorded: No change
- change in fluorescence intensity with vesicle membranes containing anionic phospholipids [4]: increases up to ten-fold
- change in fluorescence intensity with monodispersed phospholipids [5]: not affected; also recorded: no change
- movement of 31P signals for phospholipid head groups upon addition of sensor [6]: hardly move
- fluorescence induced by scrambled erythrocytes compared to equal number of normal erythrocytes (erythrocytes): much higher
- emission in presence of apoptotic Jurkat cells versus equal number of live cells (Jurkat cells [7]): twice as intense (±5%)
- effect of the presence of Ca^2+ on binding to apoptotic cells (apoptotic cells [8]): not noticeably inhibited
- speed of binding to apoptotic cells (apoptotic cells [8]): almost instantaneous
- staining after treatment with 10 mM EDTA (apoptotic cells [8]; 10 mM EDTA): fades rapidly
- staining intensity compared with annexin V (apoptotic cells [8]; microscopy data): more intense than annexin V
- change in cell viability, judged by PI staining (Jurkat cells [9]): no change in cell viability
- association constant for phosphorylated compounds like phosphotyrosine [10]: around 10^7 M^−1

Molecule: annexin V: 35 Kd PS-binding protein
- incubation time required for complete binding [11]: up to one hour
- association constant for binding to membranes that are rich in PS ([11]; in the presence of sufficient calcium): around 10^8 M^−1
- signal difference between normal cells and apoptotic cells (apoptotic cells [1]): up to 100 fold

Molecule: anthracene zinc dipicolylamine [AZD, reference compound]
- change in fluorescence intensity with vesicle membranes containing anionic phospholipids [4]: hardly changed
